Strand notation (5' to 3'): a small letter for the sugar, then the base; units joined by * are phosphorothioate-linked, units joined directly phosphodiester-linked; [ ] holds rarer units or linkages, { } end groups; capitals alone tell only the bases. k = constrained ethyl (cEt); [5mC] = 5-methylcytosine; d = 2'-deoxy (DNA)
How the values were obtained:
[1] = Tolerability in Balb/c mice, plasma chemistry markers (Example 10); format: in vivo; details: male Balb/c mice, 50 mg/kg subcutaneously twice a week for four weeks, day 26
Description: (§1) Balb/c mice were treated with modified oligonucleotides selected from studies described above and evaluated for changes in the levels of various plasma chemistry markers.
(§2) Groups of male Balb/c mice at 4-6 weeks of age (obtained from Taconic) were injected subcutaneously twice a week for four weeks (for a total of 8 treatments) with 50 mg/kg of modified oligonucleotides. One group of male Balb/c mice was injected with PBS. Mice were euthanized on day 26 post start of treatment (24 hours following the final administration).

[2] = Tolerability in Balb/c mice, plasma chemistry markers (Example 11); format: in vivo; details: 50 mg/kg subcutaneously twice a week for four weeks
Description: as §1, §2

[3] = Tolerability in Balb/c mice, body and organ weights (Example 11); format: in vivo; details: 50 mg/kg subcutaneously twice a week for four weeks, end of study
Description: as §2
(§3) Body weights of Balb/c mice were measured at the end of the study, and the average body weight for each group is presented in the table below. Modified oligonucleotides that caused any changes in organ weights outside the expected range for modified oligonucleotides were excluded from further studies.

[4] = Tolerability in CD-1 mice, plasma chemistry markers (Example 15); format: in vivo; details: male CD-1 mice, 50 mg/kg s.c. twice a week for four weeks (8 treatments), day 26
Description: CD-1 mice were treated with modified oligonucleotides selected from studies described above and evaluated for changes in the levels of various plasma chemistry markers.
Groups of four male CD-1 mice at 4-5 weeks of age (obtained from Charles River) were injected subcutaneously twice a week for four weeks (for a total of 8 treatments) with 50 mg/kg of modified oligonucleotides. One group of male CD-1 mice was injected with PBS. Mice were euthanized on day 26 post start of treatment (24 hrs following the final administration).

Yap1 mRNA = experiment: Dose-dependent inhibition of human Yap1 in A-431 cells (Example 6, 5,000 cells per well, RTS4814); format: cell-based; details: Table 53, A-431 cells
Summary of the method: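 A-431 cells (5,000/well) took up oligonucleotides by free uptake at various doses for about 48 h. Yap1 mRNA was measured by RT-PCR (RTS4814), normalised to RIBOGREEN total RNA and expressed as % untreated control; IC50 by linear regression on a log/linear plot.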

[5] = tested on: subcutaneous DEN carcinomas; experiment: Tumor volume in DEN-HCC model, in combination with a-PD1 antibody (Example 49); format: in vivo, C57BL/6 mice; details: for Average Tumor Volume: DEN-HCC subcutaneous model, C57BL/6 mice
Description: N-nitrosodiethylamine (DEN) is administered at 25 mg/kg into 15 day old C57/BL6 mice. Carcinomas form 6 months post injection. After formation, carcinomas were then dissected from the liver and passaged subcutaneously into C57BL/6 male mice at 4-6 weeks of age to establish a subcutaneous model. For this experiment, mice were passaged with P8 subcutaneously established DEN carcinomas, rendering P9 for the duration of the experiment. Subcutaneous carcinomas are found to form at 4-6 weeks post implantation. Modified oligonucleotides 792169 (control compound) and 715491 (YAP-1 targeting modified oligonucleotide) were treated subcutaneously into groups of 7-8 mice at 10 mg/kg/week 5 times a week for 11 weeks (total of 55 doses). The PBS-only treated group and the control group were treated 5 times a week for 4 weeks (total of 20 doses). α-PD1 antibody (BioXCell) was treated intraperitoneally at 10 mg/kg/week twice a week for 4 weeks (total of 8 doses). F.D. refers to mice that were sacrificed because their tumor volume became too large.

[6] = Tolerability in Balb/c mice, body and organ weights (Example 12); format: in vivo; details: male Balb/c mice, 50 mg/kg s.c. twice a week for four weeks (8 treatments), end of study (day 26)
Description: as §2, with “6-7” for “4-6”
as §3

With “715487 (kA*kT*kT*dA*d[5mC]*dT*dT*d[5mC]*dA*dT*dA*dG*d[5mC]*kT*kT*kA) [compound 715487]” the “ALT (U/L)” value [1] was 79 U/L, the “AST (U/L)” value [1] was 96 U/L and the “TBIL” value [1] was 0.13 mg/dL. It also gave an ALT [2] of 59 U/L, an AST [2] of 81 U/L and a BUN [2] of 16 mg/dL. It also gave a TBIL [2] of 0.18 mg/dL, a Kidney weight [3] of 0.42 g and a Liver weight [3] of 1.46 g. For the same substance, the Spleen weight [3] was 0.15 g, the body weight [3] was 27 g and the ALB [4] was 1.9 g/dL. For the same substance, the ALT [4] was 66 U/L, the AST [4] was 113 U/L and the IC50 (Yap1 mRNA; Yap1 mRNA, linear regression on a log/linear plot) was 1 µM. For the same substance, the “% UTC 148 nM” value (Yap1 mRNA; free uptake, 148 nM, approximately 48 hours, RTS4814) was 87 % UTC, the “% UTC 444 nM” value (Yap1 mRNA; free uptake, 444 nM, approximately 48 hours, RTS4814) was 56 % UTC and the “% UTC 1333 nM” value (Yap1 mRNA; free uptake, 1333 nM, approximately 48 hours, RTS4814) was 48 % UTC. The “% UTC 4000 nM” value (Yap1 mRNA; free uptake, 4000 nM, approximately 48 hours, RTS4814) was 29 % UTC.
With “CGCCGATAAGGTACAC (cEt gapmer, phosphorothioate backbone, further chemistry not given here) [ION 792169, reference compound]” the “Average Tumor Volume” value ([5]; day 1 on treatment) was 354 mm3, the “Average Tumor Volume” value ([5]; day 5 on treatment) was 376 mm3 and the “Average Tumor Volume” value ([5]; day 8 on treatment) was 414 mm3. For the same substance, the “Average Tumor Volume” value ([5]; day 11 on treatment) was 523 mm3, the “Average Tumor Volume” value ([5]; day 15 on treatment) was 604 mm3 and the “Average Tumor Volume” value ([5]; day 18 on treatment) was 633 mm3. The “Average Tumor Volume” value ([5]; day 23 on treatment) was 773 mm3, the “Average Tumor Volume” value ([5]; day 25 on treatment) was 864 mm3 and the “Average Tumor Volume” value ([5]; day 28 on treatment) was 802 mm3. For the same substance, the “Average Tumor Volume” value ([5]; day 31 on treatment) was “F.D”, the “Average Tumor Volume” value ([5]; day 35 on treatment) was “F.D” and the “Average Tumor Volume” value ([5]; day 38 on treatment) was “F.D”. For the same substance, the “Average Tumor Volume” value ([5]; day 43 on treatment) was “F.D”, the “Average Tumor Volume” value ([5]; day 45 on treatment) was “F.D” and the “Average Tumor Volume” value ([5]; day 49 on treatment) was “F.D”. The “Average Tumor Volume” value ([5]; day 54 on treatment) was “F.D”, the “Average Tumor Volume” value ([5]; day 58 on treatment) was “F.D” and the “Average Tumor Volume” value ([5]; day 61 on treatment) was “F.D”. For the same substance, the “Average Tumor Volume” value ([5]; day 65 on treatment) was “F.D”, the “Average Tumor Volume” value ([5]; day 68 on treatment) was “F.D” and the “Average Tumor Volume” value ([5]; day 72 on treatment) was “F.D”. For the same substance, the “Average Tumor Volume” value ([5]; day 75 on treatment) was “F.D”, the “Average Tumor Volume” value ([5]; day 79 on treatment) was “F.D” and the “tumor volume (outcome in words)” value ([5]; subcutaneous DEN carcinomas in C57BL/6 male mice, 10 mg/kg/week, oligonucleotide subcutaneously, antibody intraperitoneally) was “sacrificed before the end of the experiment because their tumor volume became too large”.
“958499 (ATTAGAGTATGTGGCA; 3-10-3 cEt gapmer, further chemistry not given here) [compound 958499]” gave a Kidney weight [6] of 0.32 g, a Liver weight [6] of 1.44 g and a Spleen weight [6] of 0.14 g. It also gave a body weight [6] of 23 g.
